Assay results from US10369185B2, “Methods and compositions for enhancement of ability to concentrate” (KYOWA HAKKO BIO CO., LTD., priority 2014, dated 2019).
Entries after “also recorded” stand apart in the source; their conditions may differ. Peptide text beside a SMILES is read from it.

Columns and labels:
[1] = in vivo; cited from earlier work
male runners [2] = assay: Run at 90% VO2max until volitional exhaustion; format: in vivo, human; settings: LD and HD compared to DHY
Procedure: The testing protocol is depicted in FIG. 1. Data collection occurred on four separate occasions. Each session required participants to perform a 60-min run at 75% of their previously measured VO2max. Following this run, all participants performed a run at 90% of their VO2max until volitional exhaustion. All participants performed their first trial (DHY) without any rehydration. During this session the total weight lost during the trial was determined. The fluid loss that occurred during this session was then used to determine the participant's swear rate (L·hr^−1). To continue in the study, participant's sweat rate was or exceeded 1.3 L·hr^−1. During the next three trails participants were provided 250 ml of fluid every 15 minutes in equal amounts. During one of the trials participants consumed only a flavored sports drink (ELECT only), while during the other trials participants consumed the alanine-glutamine supplement (Sustamine™) mixed in the same flavored sports drink at either a low (LD: 300 mg per 500 ml) or high (HD: 1 g per 500 ml) dose.

male runners [3] = assay: Dynavision D2 visual, motor and physical reaction time to a visual stimulus; format: in vivo, human; settings: between groups
Procedure: The testing protocol is depicted in FIG. 1. Data collection occurred on four separate occasions. Each session required participants to perform a 60-min run at 75% of their previously measured VO2max. Following this run, all participants performed a run at 90% of their VO2max until volitional exhaustion. All participants performed their first trial (DHY) without any rehydration. During this session the total weight lost during the trial was determined. The fluid loss that occurred during this session was then used to determine the participant's swear rate (L·hr^−1). To continue in the study, participant's sweat rate was or exceeded 1.3 L·hr^−1. […] The first assessment measured the participant's visual, motor, and physical reaction time to a stimulus with the dominant hand. […] Visual reaction time was determined as the amount of time from identifying the stimulus and initiating a reaction by leaving the home button. Motor response time was determined by the time (measured in 1/100's of a second) it took to physically strike the stimulus following the initial visual reaction and was measured as the amount of time from the hand leaving the home button and striking the stimulus. Physical reaction time was determined by the total elapsed time from the introduction of the target stimulus to the physical completion of the task (returning to the home button after striking the stimulus). […]

[4] = alanylglutamine compared to glutamine; cited from earlier work

## C[C@H](N)C(=O)N[C@@H](CCC(N)=O)C(=O)O [L-Alanyl-L-Glutamine] (H-Ala-Gln-OH)
[1]
  degradation in the body: immediately degraded into alanine and glutamine in the body
Male runners [2]
  run times at 90% VO2max (time to exhaustion): significantly longer at LD and HD compared to DHY; also recorded: improved time to exhaustion compared to when subjects were dehydrated; also recorded: can enhance time to exhaustion
Male runners [3]
  change in visual, motor and physical reaction times to a visual stimulus: No significant differences were noted between groups
[4]
  solubility in aqueous solutions: superior
  stability (heat stability): superior
